Source: ChEMBL document CHEMBL5335866, “Structure-Based Optimization of Selective and Brain Penetrant CK1δ Inhibitors for the Treatment of Circadian Disruptions” (ACS Med Chem Lett, 2024)
The source made the active and inactive calls. The rule behind the calls is not given here.

Experiments:
[1] = Intrinsic clearance in human liver microsomes at 1 uM preincubated for 5 mins followed by NADPH addition measured for 60 mins by LC-MS/MS analysis; assay type: ADME, Microsome; conditions: time 65 min, read-out: CLH
[2] = Intrinsic clearance in rat liver microsomes at 1 uM preincubated for 5 mins followed by NADPH addition measured for 60 mins by LC-MS/MS analysis; assay type: ADME, Microsome; conditions: time 65 min, read-out: CLH
[3] = Apparent permeability across apical to basal side in MDCK cells expressing MDR1 at 5 uM incubated for 60 mins by LC/MS/MS analysis; assay type: ADME, cell-based, Canis lupus familiaris, MDCK1; conditions: dog
[4] = Clearance in Sprague-Dawley rat at 1 mg/kg, iv measured for 24 hrs by LC-MS/MS analysis; assay type: ADME, organism-based; conditions: in vivo
[5] = Volume of distribution at steady state in Sprague-Dawley rat at 1 mg/kg, iv measured for 24 hrs by LC-MS/MS analysis; assay type: ADME, organism-based; conditions: in vivo, read-out: Vdss
[6] = Oral bioavailability in Sprague-Dawley rat at 5 mg/kg measured for 24 hrs by LC-MS/MS analysis; assay type: ADME, organism-based; conditions: in vivo
[7] = Cmax in Sprague-Dawley rat at 5 mg/kg, po measured for 24 hrs by LC-MS/MS analysis; assay type: ADME, organism-based; design: dose 5 mg/kg, time 24 hrs, route po; conditions: in vivo
[8] = Half life in Sprague-Dawley rat at 5 mg/kg, po measured for 24 hrs by LC-MS/MS analysis; assay type: ADME, organism-based; conditions: in vivo
[9] = AUC (infinity) in Sprague-Dawley rat at 5 mg/kg, po measured for 24 hrs by LC-MS/MS analysis; assay type: ADME, organism-based; design: time 24 hrs, dose 5 mg/kg, route po; conditions: in vivo
[10] = Intrinsic clearance in mouse liver microsomes at 1 uM preincubated for 5 mins followed by NADPH addition measured for 60 mins by LC-MS/MS analysis; assay type: ADME, Microsome; conditions: time 65 min, read-out: CLH
[11] = Intrinsic clearance in dog liver microsomes at 1 uM preincubated for 5 mins followed by NADPH addition measured for 60 mins by LC-MS/MS analysis; assay type: ADME, Canis lupus familiaris, Microsome; conditions: time 65 min, read-out: CLH
[12] = Intrinsic clearance in cynomolgus monkey liver microsomes at 1 uM preincubated for 5 mins followed by NADPH addition measured for 60 mins by LC-MS/MS analysis; assay type: ADME, Macaca fascicularis, Microsome; conditions: time 65 min, read-out: CLH
Cytochrome P450 1A2 = Cytochrome P450 1A2 (Homo sapiens, UniProt P05177); assay: Inhibition of CYP1A2 in human liver microsomes incubated for 10 mins in presence of NADPH by LC-MS/MS analysis; assay type: ADME, Microsome
Cytochrome P450 2C8 = Cytochrome P450 2C8 (Homo sapiens, UniProt P10632); assay: Inhibition of CYP2C8 in human liver microsomes incubated for 10 mins in presence of NADPH by LC-MS/MS analysis; assay type: ADME, Microsome
Cytochrome P450 2C9 = Cytochrome P450 2C9 (Homo sapiens, UniProt P11712); assay: Inhibition of CYP2C9 in human liver microsomes incubated for 10 mins in presence of NADPH by LC-MS/MS analysis; assay type: ADME, Microsome
Cytochrome P450 2C19 = Cytochrome P450 2C19 (Homo sapiens, UniProt P33261); assay: Inhibition of CYP2C19 in human liver microsomes incubated for 10 mins in presence of NADPH by LC-MS/MS analysis; assay type: ADME, Microsome
Cytochrome P450 2D6 = Cytochrome P450 2D6 (Homo sapiens, UniProt P10635); assay: Inhibition of CYP2D6 in human liver microsomes incubated for 10 mins in presence of NADPH by LC-MS/MS analysis; assay type: ADME, Microsome
Cytochrome P450 3A4 = Cytochrome P450 3A4 (Homo sapiens, UniProt P08684); assay: Inhibition of CYP3A4 in human liver microsomes using midazolam as substrate incubated for 5 mins in presence of NADPH by LC-MS/MS analysis; assay type: ADME, Microsome
[13] = biological target: Casein kinase I isoform alpha (Homo sapiens, UniProt P48729); assay: Inhibition of CK1 alpha (unknown origin)
[14] = biological target: Casein kinase I isoform epsilon (Homo sapiens, UniProt P49674); assay: Inhibition of CK1 epsilon (unknown origin)
[15] = Unbound Cmax in Sprague-Dawley rat at 5 mg/kg, po measured for 24 hrs by LC-MS/MS analysis; assay type: ADME, organism-based; conditions: in vivo
[16] = Cmax in brain of C57BL/6 mouse at 30 mg/kg, sc measured after 15 mins by LC/MS-MS analysis; assay type: ADME, organism-based; design: time 15 min, dose 30 mg/kg, route sc
[17] = Cmax in plasma of C57BL/6 mouse at 30 mg/kg, sc measured after 15 mins by LC/MS-MS analysis; assay type: ADME, organism-based; design: dose 30 mg/kg, time 15 min, route sc
[18] = Cmax in brain of C57BL/6 mouse at 30 mg/kg, sc measured for 6 hrs by LC/MS-MS analysis; assay type: ADME, organism-based; design: time 6 hrs, dose 30 mg/kg, route sc
[19] = Cmax in plasma of C57BL/6 mouse at 30 mg/kg, sc measured for 6 hrs by LC/MS-MS analysis; assay type: ADME, organism-based; design: time 6 hrs, dose 30 mg/kg, route sc
[20] = Unbound drug concentration in brain of C57BL/6 mouse at 30 mg/kg, sc measured for 6 hrs by LC/MS-MS analysis; assay type: ADME, organism-based; conditions: in vivo
[21] = Unbound drug concentration in plasma of C57BL/6 mouse at 30 mg/kg, sc measured for 6 hrs by LC/MS-MS analysis; assay type: ADME, organism-based; conditions: in vivo
[22] = Ratio of unbound fraction in brain to plasma of C57BL/6 mouse at 30 mg/kg, sc measured for 6 hrs by LC/MS-MS analysis; assay type: ADME, organism-based; conditions: read-out: K(p,uu,brain)
Brain = assay: Ex vivo receptor occupancy at CK1 delta in brain of C57BL/6 mouse at 30 mg/kg, sc measured for 6 hrs by autoradiography relative to control; assay type: functional
[23] = Effect on circadian rhythms in C57BL/6 mouse assessed as phase delay in time at 30 mg/kg, sc qd for 10 days by wheel running assay; assay type: functional; conditions: time 10 day
[24] = biological target: TRAF2 and NCK-interacting protein kinase (Homo sapiens, UniProt Q9UKE5); assay: Inhibition of TNIK (unknown origin)
[25] = Oral bioavailability in C57BL/6 mouse at 5 mg/kg measured for 6 hrs by LC/MS-MS analysis; assay type: ADME, organism-based; conditions: in vivo
[26] = Cmax in C57BL/6 mouse at 5 mg/kg, po measured for 6 hrs by LC/MS-MS analysis; assay type: ADME, organism-based; design: dose 5 mg/kg, time 6 hrs, route po; conditions: in vivo
[27] = Oral bioavailability in C57BL/6 mouse at 30 mg/kg measured for 6 hrs by LC/MS-MS analysis; assay type: ADME, organism-based; conditions: in vivo
[28] = Cmax in plasma of C57BL/6 mouse at 30 mg/kg, sc measured after 30 mins by LC/MS-MS analysis; assay type: ADME, organism-based; design: time 30 min, dose 30 mg/kg, route sc
[29] = Cmax in brain of C57BL/6 mouse at 30 mg/kg, sc measured after 30 mins by LC/MS-MS analysis; assay type: ADME, organism-based; design: time 30 min, dose 30 mg/kg, route sc
Mus musculus [30] = assay: Effect on circadian rhythms in C57BL/6 mouse assessed as phase shift at 30 mg/kg, sc qd measured after 4 to 10 days by wheel running assay; assay type: functional, organism-based; conditions: time 4-10 day
Mus musculus [31] = assay: Effect on circadian rhythms in C57BL/6 mouse assessed as phase shift at 10 to 30 mg/kg, sc qd measured after 1 to 10 days by wheel running assay; assay type: functional, organism-based; conditions: dose 10-30 mg/kg, time 1-10 day, tested as the 2H-labelled form

Sequence of Casein kinase I isoform epsilon (P49674 whole entry, canonical isoform): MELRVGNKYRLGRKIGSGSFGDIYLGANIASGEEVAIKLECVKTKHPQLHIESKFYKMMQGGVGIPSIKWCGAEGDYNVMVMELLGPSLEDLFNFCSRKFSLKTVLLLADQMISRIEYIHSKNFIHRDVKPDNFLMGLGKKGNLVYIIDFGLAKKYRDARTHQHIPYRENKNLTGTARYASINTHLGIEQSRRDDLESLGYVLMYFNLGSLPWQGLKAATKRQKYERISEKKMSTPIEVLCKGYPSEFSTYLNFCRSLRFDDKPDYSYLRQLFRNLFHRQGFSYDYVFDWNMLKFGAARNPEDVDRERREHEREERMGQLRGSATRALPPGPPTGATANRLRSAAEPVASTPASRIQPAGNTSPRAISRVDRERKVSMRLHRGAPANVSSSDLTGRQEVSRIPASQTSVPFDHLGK
Sequence of Cytochrome P450 2D6 (P10635 whole entry): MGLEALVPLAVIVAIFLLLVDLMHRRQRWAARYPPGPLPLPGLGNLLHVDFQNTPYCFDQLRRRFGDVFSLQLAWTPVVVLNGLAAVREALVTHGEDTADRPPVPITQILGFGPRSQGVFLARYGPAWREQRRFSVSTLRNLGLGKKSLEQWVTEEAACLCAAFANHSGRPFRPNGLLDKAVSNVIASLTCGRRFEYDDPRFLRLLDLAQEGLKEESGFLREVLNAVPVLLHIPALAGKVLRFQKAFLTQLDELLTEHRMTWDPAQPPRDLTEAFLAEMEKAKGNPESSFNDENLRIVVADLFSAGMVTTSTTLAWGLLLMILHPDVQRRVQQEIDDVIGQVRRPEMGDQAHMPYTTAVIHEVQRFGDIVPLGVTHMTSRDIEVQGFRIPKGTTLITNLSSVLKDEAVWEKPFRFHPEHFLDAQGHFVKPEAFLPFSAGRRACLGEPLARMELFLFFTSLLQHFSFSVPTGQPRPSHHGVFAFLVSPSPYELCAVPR
Sequence of Cytochrome P450 2C19 (P33261 whole entry): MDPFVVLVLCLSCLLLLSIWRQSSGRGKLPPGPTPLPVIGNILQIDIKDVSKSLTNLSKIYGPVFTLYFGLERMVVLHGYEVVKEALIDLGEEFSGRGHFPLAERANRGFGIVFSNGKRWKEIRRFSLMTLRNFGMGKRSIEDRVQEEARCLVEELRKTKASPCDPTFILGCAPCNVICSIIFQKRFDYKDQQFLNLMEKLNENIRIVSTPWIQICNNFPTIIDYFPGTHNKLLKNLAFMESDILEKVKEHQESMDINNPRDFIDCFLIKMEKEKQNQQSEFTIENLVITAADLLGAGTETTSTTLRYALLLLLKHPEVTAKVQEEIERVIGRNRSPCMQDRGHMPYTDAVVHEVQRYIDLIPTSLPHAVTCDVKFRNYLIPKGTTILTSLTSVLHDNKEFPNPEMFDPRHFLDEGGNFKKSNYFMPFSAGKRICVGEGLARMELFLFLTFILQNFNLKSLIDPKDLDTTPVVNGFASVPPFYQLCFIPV
Sequence of Cytochrome P450 2C8 (P10632 whole entry): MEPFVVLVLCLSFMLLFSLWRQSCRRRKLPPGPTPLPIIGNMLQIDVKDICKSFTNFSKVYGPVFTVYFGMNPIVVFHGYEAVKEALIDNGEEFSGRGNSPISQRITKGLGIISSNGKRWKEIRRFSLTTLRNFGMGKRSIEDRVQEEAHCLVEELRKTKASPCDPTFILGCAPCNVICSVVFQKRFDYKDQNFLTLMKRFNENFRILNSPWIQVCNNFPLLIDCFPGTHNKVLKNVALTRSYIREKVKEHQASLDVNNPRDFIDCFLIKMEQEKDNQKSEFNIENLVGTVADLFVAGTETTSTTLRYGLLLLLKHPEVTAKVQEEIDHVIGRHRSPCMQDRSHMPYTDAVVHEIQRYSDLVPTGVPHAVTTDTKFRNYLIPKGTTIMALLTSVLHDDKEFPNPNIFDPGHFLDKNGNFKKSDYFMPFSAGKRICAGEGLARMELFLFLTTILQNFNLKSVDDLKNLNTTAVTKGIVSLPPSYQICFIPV
Sequence of Casein kinase I isoform alpha (P48729 whole entry, canonical isoform): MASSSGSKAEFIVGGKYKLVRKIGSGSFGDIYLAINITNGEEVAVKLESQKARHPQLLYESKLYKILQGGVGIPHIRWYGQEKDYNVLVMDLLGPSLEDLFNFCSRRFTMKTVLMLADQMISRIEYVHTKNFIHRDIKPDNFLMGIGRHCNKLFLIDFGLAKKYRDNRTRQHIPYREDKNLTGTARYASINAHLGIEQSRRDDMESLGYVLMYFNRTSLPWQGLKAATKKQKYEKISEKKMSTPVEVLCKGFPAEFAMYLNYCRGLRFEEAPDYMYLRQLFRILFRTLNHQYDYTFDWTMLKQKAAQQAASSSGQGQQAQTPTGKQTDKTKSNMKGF
Sequence of Cytochrome P450 1A2 (P05177 whole entry): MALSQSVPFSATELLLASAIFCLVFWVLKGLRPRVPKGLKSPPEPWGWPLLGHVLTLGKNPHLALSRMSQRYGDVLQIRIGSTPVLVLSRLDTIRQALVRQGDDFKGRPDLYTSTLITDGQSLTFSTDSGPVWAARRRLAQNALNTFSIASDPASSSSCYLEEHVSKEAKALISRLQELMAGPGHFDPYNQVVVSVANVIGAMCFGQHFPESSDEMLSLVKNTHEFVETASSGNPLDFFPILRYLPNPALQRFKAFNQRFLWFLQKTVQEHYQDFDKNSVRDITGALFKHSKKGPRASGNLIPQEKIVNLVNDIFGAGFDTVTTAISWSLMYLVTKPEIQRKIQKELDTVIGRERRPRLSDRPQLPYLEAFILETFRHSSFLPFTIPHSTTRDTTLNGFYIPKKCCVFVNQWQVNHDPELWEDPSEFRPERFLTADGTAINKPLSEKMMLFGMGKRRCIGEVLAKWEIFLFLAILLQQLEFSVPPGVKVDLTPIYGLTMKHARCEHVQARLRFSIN
Sequence of Cytochrome P450 2C9 (P11712 whole entry): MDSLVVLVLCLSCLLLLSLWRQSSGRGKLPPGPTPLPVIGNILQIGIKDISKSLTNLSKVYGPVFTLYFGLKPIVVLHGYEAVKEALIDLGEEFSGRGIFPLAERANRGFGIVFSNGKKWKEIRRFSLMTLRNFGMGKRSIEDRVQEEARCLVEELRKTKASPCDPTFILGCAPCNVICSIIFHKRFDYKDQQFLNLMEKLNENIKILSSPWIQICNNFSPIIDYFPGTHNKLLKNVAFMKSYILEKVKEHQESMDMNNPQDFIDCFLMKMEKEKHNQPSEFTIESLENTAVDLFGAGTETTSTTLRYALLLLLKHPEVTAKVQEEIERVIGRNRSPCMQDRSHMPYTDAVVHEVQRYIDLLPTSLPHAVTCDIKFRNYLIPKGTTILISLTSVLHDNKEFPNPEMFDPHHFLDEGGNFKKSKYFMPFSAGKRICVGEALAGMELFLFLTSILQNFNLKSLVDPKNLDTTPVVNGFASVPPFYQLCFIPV
Sequence of Cytochrome P450 3A4 (P08684 whole entry, canonical isoform): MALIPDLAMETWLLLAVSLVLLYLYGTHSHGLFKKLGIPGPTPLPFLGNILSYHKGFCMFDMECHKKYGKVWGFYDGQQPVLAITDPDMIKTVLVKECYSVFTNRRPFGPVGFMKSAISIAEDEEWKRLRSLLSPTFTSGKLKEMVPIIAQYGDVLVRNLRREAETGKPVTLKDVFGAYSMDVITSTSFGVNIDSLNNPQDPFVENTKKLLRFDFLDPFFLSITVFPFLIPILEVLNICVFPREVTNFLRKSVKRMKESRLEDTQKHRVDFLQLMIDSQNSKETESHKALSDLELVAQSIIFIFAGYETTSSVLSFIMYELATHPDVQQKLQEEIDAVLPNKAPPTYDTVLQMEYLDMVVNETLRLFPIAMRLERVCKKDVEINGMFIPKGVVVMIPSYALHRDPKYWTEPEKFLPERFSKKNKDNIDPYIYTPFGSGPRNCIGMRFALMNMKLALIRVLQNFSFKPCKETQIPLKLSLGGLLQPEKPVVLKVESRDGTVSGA

Compound | microsomal CLint at 1 µM [2] | Papp A→B at 1 h, 5 µM [3] | clearance [4] | Vd [5] | bioavailability [6] | Cmax [7] | half-life [8] | AUC(0-inf) [9] | microsomal CLint at 1 µM [10] | microsomal CLint at 1 µM [11] | microsomal CLint at 1 µM [12] | IC50 (Cytochrome P450 1A2) | IC50 (Cytochrome P450 2C8) | IC50 (Cytochrome P450 2C9) | IC50 (Cytochrome P450 2C19) | IC50 (Cytochrome P450 2D6) | IC50 (Cytochrome P450 3A4) | IC50 [13] | IC50 [14] | fCmax [15] | also measured
[2H]C([2H])([2H])C1(C([2H])([2H])[2H])Cn2nc(-c3ccc(F)cn3)c(-c3ccnc4[nH]ncc34)c2CO1 | 8.5 µL/min/mg | 4.8 ×10⁻⁶ cm/s | 44 mL/min/kg | 1 L/kg | 85% | 3000 nM | 48 min | 1940 ng·h/mL | < 7.7 µL/min/mg | < 7.7 µL/min/mg | < 7.7 µL/min/mg | > 20 µM | > 20 µM | > 20 µM | > 20 µM | > 20 µM | > 20 µM | 0.41 µM | 0.11 µM | 1.1 µM | microsomal CLint at 1 µM [1]: < 7.7 µL/min/mg; Cmax [16]: 3700 nM; Cmax [17]: 23900 nM; Cmax [18]: 1350 ng/g; Cmax [19]: 8850 ng/mL; Drug uptake(free) [20]: 789 nM; Cp(f) [21]: 6117 nM; Kp uu at 6 h [22]: 0.13; Occ (Brain): 60%; Time [23]: 1.25 h
CC1(C)Cn2nc(-c3ccc(F)cn3)c(-c3ccnc4[nH]ncc34)c2CO1 | 17.2 µL/min/mg | 7.4 ×10⁻⁶ cm/s | 104 mL/min/kg | 1.2 L/kg | 19% | 400 nM | 60 min | 150 ng·h/mL | 22.7 µL/min/mg | < 7.7 µL/min/mg | 12.3 µL/min/mg | > 20 µM | > 20 µM | > 20 µM | > 20 µM | > 20 µM | > 20 µM | 0.79 µM | 0.093 µM | 0.15 µM | IC50 [24]: 3.2 µM; bioavailability [25]: 4%; Cmax [26]: 700 nM; bioavailability [27]: 53%; Cmax [28]: 11300 nM; Cmax [29]: 2300 nM; Cmax [18]: 847 ng/g; Cmax [19]: 4110 ng/mL; Drug uptake(free) [20]: 668 nM; Cp(f) [21]: 2899 nM; Kp uu at 6 h [22]: 0.23; Occ (Brain): 56%; Time [23]: 0.83 h; Activity (Mus musculus [30]): Active; Activity (Mus musculus [31]): Active
